Key:
Assay type in all cases: cell-based
[1] = tested on: HIV-1 2.12 virus with Ala124/Ala125 variant integrase; experiment: C8166 HIV-1 luciferase assay (EC50), A124/A125 integrase variant virus; settings: Human immunodeficiency virus 1, C8166, read-out: EC50 (nM) A124/A125
Description: (§1) C8166 cells are derived from a human T-lymphotrophic virus type 1 immortalized but nonexpressing line of cord blood lymphocytes (NIH AIDS reagent 404) and are highly permissive to HIV-1 infection. The pGL3 Basic LTR/TAR plasmid is made by introducing the HIV-1 HxB2 LTR sequence from nucleotide −138 to +80 (Sca1-HindIII) upstream of the luciferase gene in the pGL3 Basic Vector (a promoterless luciferase expression vector from Promega catalogue #E1751) with the gene for blasticidine resistance cloned in. The reporter cells are made by electroporating C8166 cells with pGL3 Basic LTR/TAR and selecting positive clones with blasticidine. Clone C8166-LTRluc #A8-F5-G7 was selected by 3 consecutive rounds of limiting dilution under blasticidine selection. Cultures are maintained in complete media (consisting of: Roswell Park Memorial Institute medium (RPMI) 1640+10% FBS+10^−5 M β-mercaptoethanol+10 μg/mL gentamycin) with 5 μg/mL blasticidine, however, blasticidine selection is removed from the cells before performing the viral replication assay.
(§2) Serial dilutions of HIV-1 inhibitor compounds are prepared in complete media from 10 mM DMSO stock solutions. Eleven serial dilutions of 2.5× are made at 8× desired final concentration in a 1 ml deep well titer plate (96 wells). The 12th well contains complete media with no inhibitor and serves as the positive control. All samples contain the same concentration of DMSO 0.1% DMSO). A 25 μL aliquot of inhibitor is added, to triplicate wells, of a 96 well tissue culture treated clear view black microtiter plate (Corning Costar catalogue #3904). The total volume per well is 200 μL of media containing cells and inhibitor. The last row is reserved for uninfected C8166 LTRluc cells to serve as the background blank control and the first row is media alone.
(§3) C8166 LTRluc cells are counted and placed in a minimal volume of complete RPMI 1640 in a tissue culture flask (ex. 30×10^6 cells in 10 mL media/25 cm^2 flask). Cells are infected with HIV-1 or virus with variant integrase generated as described below at a […] (moi) of 0.005. Cells are incubated for 1.5 h at 37° C. on a rotating rack in a 5% CO2 incubator and re-suspended in complete RPMI to give a final concentration of 25,000-cells/175 μL. 175 μL of cell mix is added to wells of a 96 well microtiter plate containing 25 μL 8× inhibitors. 25,000 uninfected C8166-LTRluc cells/well in 200 μL complete RPMI are added to the last row for background control. Cells are incubated at 37° C. in 5% CO2 incubator for 3 days.
(§4) 50 μL Steady Glo (luciferase substrate T1/2=5 hours Promega catalogue #E2520) is added to each well of the 96 well plate. The relative light units (RLU) of luciferase is determined using the LUMIstar Galaxy luminometer (BMG LabTechnologies). Plates are read from the bottom for 2 seconds per well with a gain of 240.
(§5) The level of inhibition (% inhibition) of each well containing inhibitor is calculated as follows: […]
(§6) The calculated % inhibition values are used to determine EC50, slope factor (n) and maximum inhibition (Imax) by the non-linear regression routine NLIN procedure of SAS using the following equation: […]
(§7) The 2.12 virus with NL4.3 strain of HIV-1 integrase (SEQ ID NO: 1) is used for the Thr124/Thr125 variant integrase residues and HXB2 integrase is introduced into the 2.12 virus for the Ala124/Thr125 variant integrase residues. The remaining variants viruses are generated by site directed mutagenesis of NL4.3 integrase to introduce the Ala124/Ala125, Thr124/Ala125, Asn124/Thr125, or Asn124/Ala125 variants in the 2.12 virus. Molecular biology and generation of virus are performed in a similar manner to Doyon et al. J. Virol. 70(6):3763-9 (1996). Briefly, site directed mutagenesis is used to introduce silent mutations in the integrase gene of the 2.12 virus. […]

[2] = tested on: HIV-1 2.12 virus with Ala124/Thr125 variant integrase (HXB2 integrase); experiment: C8166 HIV-1 luciferase assay (EC50), A124/T125 integrase variant virus; settings: Human immunodeficiency virus 1, HXB2, C8166, read-out: EC50 (nM) A124/T125
Description: as §1, §2, §3, §4, §5, §6, §7

[3] = tested on: HIV-1 2.12 virus with Thr124/Ala125 variant integrase; experiment: C8166 HIV-1 luciferase assay (EC50), T124/A125 integrase variant virus; settings: Human immunodeficiency virus 1, C8166, read-out: EC50 (nM) T124/A125
Description: as §1, §2, §3, §4, §5, §6, §7

[4] = tested on: HIV-1 2.12 virus with Thr124/Thr125 variant integrase (NL4.3 integrase); experiment: C8166 HIV-1 luciferase assay (EC50), T124/T125 integrase variant virus; settings: Human immunodeficiency virus 1, C8166, read-out: EC50 (nM) T124/T125
Description: as §1, §2, §3, §4, §5, §6, §7

Structure (SMILES) | EC50 [1] [nM] | EC50 [2] [nM] | EC50 [3] [nM] | EC50 [4] [nM]
Cc1ccc(-c2c([C@H](OC(C)(C)C)C(=O)O)c(C)nc3ccccc23)cc1C [Compound 1008] | 55 | 11 | 49 | 59
Cc1nc2ccccc2c(-c2ccc(Cl)cc2F)c1[C@H](OC(C)(C)C)C(=O)O [Compound 1010] | 49 | 12 | 76 | 41
Cc1nc2ccccc2c(-c2ccc3c(c2)CCO3)c1[C@H](OC(C)(C)C)C(=O)O [Compound 1014] | 68 | 19 | 76 | 87
Cc1nc2ccccc2c(-c2ccc(CF)cc2F)c1[C@H](OC(C)(C)C)C(=O)O [Compound 1018] | 110 | 35 | 93 | 55
Cc1nc2ccccc2c(-c2ccc3c(c2)CCC3)c1[C@H](OC(C)(C)C)C(=O)O [Compound 1023] | 37 | 12 | 31 | 29
Cc1nc2ccccc2c(-c2ccc3c(c2)C(C)CCO3)c1[C@H](OC(C)(C)C)C(=O)O (stereo partly drawn) [Compound 1052] | 64 | 28 | 59 | 120
Cc1nc2ccccc2c(-c2ccc3ncsc3c2)c1[C@H](OC(C)(C)C)C(=O)O [Compound 1136] | 170 | 91 | 140 | 200
Cc1nc2ccccc2c(OC(C)C)c1C(C(=O)O)c1ccc2c3c(ccnc13)CCO2 (stereo not drawn) [Compound 2001] | 67 | 71 | 120 | 110
CCC(C)(C)Oc1c(C(C(=O)O)c2ccc3c4c(ccnc24)CCO3)c(C)nc2ccccc12 (stereo not drawn) [Compound 2002] | 13 | 9.9 | 24 | 19

Reference: US8354429B2, “Inhibitors of human immunodeficiency virus replication” (priority 2007, dated 2013)
